{
  "source": "ChEMBL document CHEMBL4184150",
  "about": "“Microcystins: Synthesis and structure-activity relationship studies toward PP1 and PP2A” (Bioorg Med Chem, 2018)",
  "key": {"[1]": {"molecular_target": "Serine/threonine-protein phosphatase 2A catalytic subunit alpha isoform (Homo sapiens, UniProt P67775)", "sequence (P67775 whole entry, looked up, canonical isoform)": "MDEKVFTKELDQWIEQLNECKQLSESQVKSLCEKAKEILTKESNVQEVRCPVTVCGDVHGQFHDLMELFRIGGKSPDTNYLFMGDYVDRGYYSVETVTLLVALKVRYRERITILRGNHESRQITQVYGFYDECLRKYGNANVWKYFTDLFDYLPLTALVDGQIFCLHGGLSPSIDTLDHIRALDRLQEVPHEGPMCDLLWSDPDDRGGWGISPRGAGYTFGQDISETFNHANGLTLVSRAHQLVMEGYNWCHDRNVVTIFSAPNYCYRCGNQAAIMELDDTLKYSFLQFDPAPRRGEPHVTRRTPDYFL", "assay": "Inhibition of recombinant human PP2A catalytic subunit L309 deletion mutant using DIFMUP as substrate pretreated for 10 mins followed by substrate addition measured every 15 secs for 30 mins by fluorescence assay"}, "[2]": {"molecular_target": "Serine/threonine-protein phosphatase PP1-alpha catalytic subunit (Homo sapiens, UniProt P62136)", "sequence (P62136 whole entry)": "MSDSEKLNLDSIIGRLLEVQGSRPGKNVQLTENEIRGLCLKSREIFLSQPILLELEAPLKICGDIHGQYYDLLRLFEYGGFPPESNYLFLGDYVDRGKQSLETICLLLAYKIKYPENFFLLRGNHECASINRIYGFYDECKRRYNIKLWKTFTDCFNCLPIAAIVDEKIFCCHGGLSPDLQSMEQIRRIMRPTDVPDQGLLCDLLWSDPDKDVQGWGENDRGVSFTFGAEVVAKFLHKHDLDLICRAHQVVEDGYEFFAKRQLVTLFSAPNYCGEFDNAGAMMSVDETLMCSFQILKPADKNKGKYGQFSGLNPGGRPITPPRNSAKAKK", "assay": "Inhibition of recombinant PP1alpha catalytic subunit (unknown origin) using DIFMUP as substrate pretreated for 10 mins followed by substrate addition measured every 15 secs for 30 mins by fluorescence assay"}, "[3]": {"assay": "Inhibition of rabbit skeletal muscle PP2A catalytic subunit using [32P]-phosphorylase alpha as substrate pretreated for 10 mins followed by substrate addition", "set-up": "species or system Oryctolagus cuniculus"}, "Oryctolagus cuniculus": {"species_on_record": "Oryctolagus cuniculus", "assay": "Selectivity ratio of IC50 for rabbit skeletal muscle PP2A catalytic subunit to IC50 for rabbit skeletal muscle PP1 catalytic subunit"}, "[4]": {"assay": "Inhibition of rabbit skeletal muscle PP1 catalytic subunit using [32P]-phosphorylase alpha as substrate pretreated for 10 mins followed by substrate addition", "set-up": "species or system Oryctolagus cuniculus"}},
  "data": [
    {"smiles": "CC(C)C[C@@H]1NC(=O)[C@@H](C)NC(=O)CN(C)C(=O)CC[C@H](C(=O)O)NC(=O)[C@@H](C)[C@H](C)NC(=O)[C@H](Cc2ccccc2)NC(=O)C[C@H](C(=O)O)NC1=O", "values": [
      {"measurement": "IC50", "setting": "[1]", "result": 900, "unit": "nM"},
      {"measurement": "IC50", "setting": "[2]", "result": 254, "unit": "µM"}
    ]},
    {"smiles": "C=C1C(=O)N[C@H](C)C(=O)N[C@@H](CC2CCCCC2)C(=O)N[C@@H](C(=O)O)[C@H](C)C(=O)N[C@@H](C)C(=O)N[C@@H](/C=C/C(C)=C/[C@H](C)[C@H](Cc2ccccc2)OC)[C@H](C)C(=O)N[C@@H](C(=O)O)CCC(=O)N1C", "values": [
      {"measurement": "IC50", "setting": "[3]", "result": 3.4, "unit": "nM"},
      {"measurement": "Ratio IC50", "setting": "Oryctolagus cuniculus", "result": 7},
      {"measurement": "IC50", "setting": "[4]", "result": 0.52, "unit": "nM"}
    ]}
  ]
}
